Test results reported in patent US7655597B1, “Pesticide compositions including polymeric adjuvants” (priority 2009, dated 2010).

Test system: fire ants
Assay: fire ant kill test in insecticide-coated mason jar (time to death of entire population)
Type: in vivo
Conditions: Table 1
Procedure: In this example a series of commercially available insecticides were tested at various dilution levels and with and without a preferred copolymer, namely the AVAIL® copolymer previously described (a 40%-60% w/w aqueous composition of a saturated sodium salt of a maleic anhydride/itaconic acid copolymer in water). In each set of test runs, the selected insecticide was tested with a population of fire ants in order to determine the time required to kill the entire population.
In particular, in each test run 20 ml of the respective liquid insecticide composition was added to a mason jar and swirled around the inside bottom thereof. The liquid was then poured off and the remainder was allowed to dry on the inner jar surface, creating substantially a monomeric dried layer. The outside neck surface of the jar was then coated in talc, and the open end of the jar was placed into a fire ant nest. The talc coating prevented the aggressive fire ants from climbing the outer surface of the jar. A population of fire ants was thus established in each jar, and the jar was then topped with an apertured mason jar cap. The time to death of all of the fire ants was then recorded.
In each case, the recommended concentration of insecticide was prepared (recorded as “1X”), followed by dilutions with water to create the diluted compositions. Where copolymer was used, the copolymer was added to the insecticide with gentle mixing, at a level of 30 ml per gallon. If desired, lesser amounts of copolymer could be used, e.g., 20 ml per gallon.
In another series of tests, insecticides were tested with various copolymers having different ratios of maleic anhydride and itaconic acid moieties, and at different pH levels. In particular, respective copolymeric compositions were prepared made up of polymaleic acid, a 1:3 weight ratio of maleic anhydride to itaconic acid, a 1:1 weight ratio of maleic anhydride to itaconic acid, a 3:1 weight ratio of maleic anhydride to itaconic acid, and a 7:1 weight ratio of maleic anhydride to itaconic acid. […]

[1] = insecticide at 1X (recommended concentration), time to death of all fire ants

Row | Structure (SMILES) | TIME TO DEATH (insecticide at 1/3X dilution) | TIME TO DEATH [1]
1 | CC1(C)C(C=C(Cl)Cl)C1C(=O)OCc1cccc(Oc2ccccc2)c1 (stereo not drawn) [permethrin, (3-phenoxyphenyl)methyl 3-(2,2-dichloroethenyl)-2,2-dimethyl-cyclopropane-1-carboxylate] | 5 min | 5 min
2 | CCOC(=O)CC(SP(=S)(OC)OC)C(=O)OCC (stereo not drawn) [malathion, 2-(dimethoxyphosphinothioylthio) butanedioic acid diethyl ester] | – | 1 min
